SMILES strings stand for the structures. Activity calls are given as the source filed them. No cut-off for these calls is given here.

Series [1] is described as follows: Prodrug release in DTT at pH 7.4 after 12 hrs by HPLC analysis. Format: ADME. Particulars: pH 7.4, 12 h.
A short description of series [2]: Prodrug release in DTT at pH 7.4 assessed as Epothilone B release after 12 hrs by HPLC analysis. Particulars: pH 7.4, 12 h. Format: ADME.
Series [3] deals with HepG2. Description: Antiproliferative activity against human HepG2 cells assessed as reduction in cell viability after 72 hrs by MTT assay. Format: functional, cell-based.
Series [4] deals with NCI-H460. Put plainly: Antiproliferative activity against human NCI-H460 cells assessed as reduction in cell viability after 72 hrs by MTT assay. It is filed as functional, cell-based.
Series [5] concerns MCF7. Description: Antiproliferative activity against human MCF7 cells assessed as reduction in cell viability after 72 hrs by MTT assay. Format: functional, cell-based.
Series [6] deals with NCI-460/Taxol. Description: Antiproliferative activity against human NCI-460/taxol cells assessed as reduction in cell viability after 72 hrs by MTT assay. It is filed as functional, cell-based. In general terms: Tetrazolium dyes change colour on reduction, which living cells bring about.
The subject of series [7] is L02. Put plainly: Cytotoxicity against human HL7702 cells incubated for 72 hrs by MTT assay. The note with it: l02, 72 h. Format: toxicity, cell-based.
The subject of series [8] is BEAS-2B. Put plainly: Cytotoxicity against human BEAS-2B cells incubated for 72 hrs by MTT assay. It is filed as toxicity, cell-based.
The test system of series [9] is MCF7. Description: Antiproliferative activity against human MCF7 cells assessed as reduction in cell viability preincubated for with NEM for 1 hr followed by compound addition by xCELLigence real time analysis. Format: functional, cell-based.
Series [10] relates to MCF7. Put plainly: Antiproliferative activity against human MCF7 cells assessed as reduction in cell viability at 1 to 1000 nM preincubated for with NEM for 1 hr followed by compound addition and measured after 72 hrs by MTT assay. Format: functional, cell-based. Particulars: dose 1-1000 nM.
For series [11], the system named is MCF7. Description: Antiproliferative activity against human MCF7 cells assessed as reduction in cell viability at 1 to 1000 nM preincubated for with rhamnose for 1 hr followed by compound addition and measured after 72 hrs by MTT assay. Format: functional, cell-based. Particulars: dose 1-1000 nM.
Series [12] in a line: Stability in mouse plasma. Format: ADME, cell-free.
Series [13] deals with MCF7. Put plainly: Antitumor activity against human MCF7 cells xenografted in mouse assessed as reduction in tumor growth at 3.2 to 6.4 mg/kg, ip administered every 3 days for 3 times and measured after 14 days. It is filed as functional, organism-based. Particulars: dose 3.2-6.4 mg/kg, time 14.0 day.
Series [14] deals with MCF7. Put plainly: Antitumor activity against human MCF7 cells xenografted in mouse assessed as reduction in tumor weight at 3.2 to 6.4 mg/kg, ip administered every 3 days for 3 times and measured after 14 days. It is filed as functional, organism-based. Particulars: dose 3.2-6.4 mg/kg, time 14.0 day. For orientation: Xenograft models place foreign cells or tissue in a host animal.

A short description of series [15]: Toxicity in mouse xenografted with human MCF7 cells assessed as reduction in body weight at 3 mg/kg, ip administered every 3 days for 3 times and measured after 14 days. Particulars: in vivo, 336 h, time 14 day. Format: organism-based.
Series [16] is described as follows: Toxicity in mouse xenografted with human MCF7 cells at 3 mg/kg, ip administered every 3 days for 3 times and measured after 14 days. Format: organism-based. Particulars: in vivo, 336 h, time 14 day.
Series [17] in a line: Toxicity in mouse xenografted with human MCF7 cells assessed as animal death at 3.2 mg/kg, ip administered every 3 days for 3 times and measured after 14 days. It is filed as organism-based. The note with it: in vivo, 336 h, time 14 day.
Series [18] in a line: Toxicity in mouse xenografted with human MCF7 cells assessed as change in body weight at 3.2 mg/kg, ip administered every 3 days for 3 times and measured after 14 days. Format: organism-based. The note with it: in vivo, 336 h, time 14 day.
Series [19] has as its system MCF7. Description: Antitumor activity against human MCF7 cells xenografted in mouse assessed as appearance of intracellular space dilatation in tumor cells at 3.2 to 6.4 mg/kg, ip administered every 3 days for 3 times measured after 14 days by H and E staining based assay. It is filed as functional, organism-based. Particulars: dose 3.2-6.4 mg/kg, time 14.0 day.
The subject of series [20] is MCF7. Description: Antitumor activity against human MCF7 cells xenografted in mouse assessed as appearance of small cavities in tumor cells at 3.2 to 6.4 mg/kg, ip administered every 3 days for 3 times measured after 14 days by H and E staining based assay. Format: functional, organism-based. The note with it: dose 3.2-6.4 mg/kg, time 14.0 day.
The subject of series [21] is MCF7. Put plainly: Antitumor activity against human MCF7 cells xenografted in mouse assessed as reduction in PCNA positive cells at 3.2 to 6.4 mg/kg, ip administered every 3 days for 3 times measured after 14 days by H and E staining based assay. Format: functional, organism-based. Particulars: dose 3.2-6.4 mg/kg, time 14.0 day.
Series [22] in a line: Toxicity in mouse xenografted with human MCF7 cells assessed as spleen damage at 3.2 mg/kg, ip administered every 3 days for 3 times and measured after 14 days. Format: organism-based. Particulars: in vivo, 336 h, time 14 day.
A short description of series [23]: Toxicity in mouse xenografted with human MCF7 cells assessed as kidney damage at 3.2 mg/kg, ip administered every 3 days for 3 times and measured after 14 days. The note with it: in vivo, 336 h, time 14 day. Format: organism-based.
Series [24] can be described thus: Prodrug release in PBS at pH 7.4 assessed as Epothilone B release in presence of different concentrations of DTT by HPLC analysis. Format: ADME. The note with it: buffer.
The nature of series [25]: Toxicity in mouse xenografted with human MCF7 cells assessed as animal death at 3 mg/kg, ip administered every 3 days for 3 times and measured on day 8. Format: organism-based. The note with it: in vivo, 192 h, time 8 day.
Series [26] concerns MCF7. Put plainly: Antitumor activity against human MCF7 cells xenografted in mouse assessed as appearance of intracellular space dilatation in tumor cells at 1.5 to 3 mg/kg, ip administered every 3 days for 3 times measured after 14 days by H and E staining based assay. Format: functional, organism-based. Particulars: dose 1.5-3 mg/kg, time 14.0 day.
Series [27] has as its system MCF7. Put plainly: Antitumor activity against human MCF7 cells xenografted in mouse assessed as appearance of small cavities in tumor cells at 1.5 to 3 mg/kg, ip administered every 3 days for 3 times measured after 14 days by H and E staining based assay. The note with it: dose 1.5-3 mg/kg, time 14.0 day. It is filed as functional, organism-based.
In series [28] the test system is MCF7. Description: Antitumor activity against human MCF7 cells xenografted in mouse assessed as reduction in PCNA positive cells at 1.5 to 3 mg/kg, ip administered every 3 days for 3 times measured after 14 days by H and E staining based assay. It is filed as functional, organism-based. Particulars: dose 1.5-3 mg/kg, time 14.0 day.

Turning to `C/C(=C\c1csc(C)n1)[C@@H]1C[C@@H]2O[C@]2(C)CCC[C@H](C)[C@H](OC(=O)Cc2ccccc2SSCCC(=O)NCc2cn(CCOCCOCCOCCO[C@@H]3O[C@@H](C)[C@H](O)[C@@H](O)[C@H]3O)nn2)[C@@H](C)C(=O)C(C)(C)[C@@H](O)CC(=O)O1`, the Drug metabolism entry in series [1] is recorded as “Active”; in series [2], “Not Active”.
For `C/C(=C\c1csc(C)n1)[C@@H]1C[C@@H]2O[C@]2(C)CCC[C@H](C)[C@H](OC(=O)OCCSSCCOCc2cn(CCOCCOCCOCCO[C@@H]3O[C@@H](C)[C@H](O)[C@@H](O)[C@H]3O)nn2)[C@@H](C)C(=O)C(C)(C)[C@@H](O)CC(=O)O1`, the outcome in series [3], in [4], in series [5], in series [6], in [13] and in series [14] was Active. Further, the outcome in series [19], in series [20] and in series [21] was Active. Besides, the Activity result in series [7], in series [8], in series [15], in series [16], in series [17] and in series [18] was “Non-Toxic” throughout. The Activity result in [22] and in [23] was “Non-Toxic” each time. In addition, the outcome in [9], in [10] and in series [11] was inactive. Moreover, the Stability entry in [12] is “Stable”. For the same compound, the figures for the Drug metabolism result in series [1], in series [2] and in [24] were “Active”, “Active” and “Not Active”, respectively.
With `C/C(=C\c1csc(C)n1)[C@@H]1C[C@@H]2O[C@]2(C)CCC[C@H](C)[C@H](O)[C@@H](C)C(=O)C(C)(C)[C@@H](O)CC(=O)O1` [PATUPILONE], the outcome in [10], in [26], in [27] and in [28] was Active. Further, the Activity entry in series [15] and in [25] was “Toxic” throughout.
For the compound `C/C(=C\c1csc(C)n1)[C@@H]1C[C@@H]2O[C@]2(C)CCC[C@H](C)[C@H](OC(=O)OCCSSCCOCc2cn(CCOCCOCCOCCO[C@@H]3O[C@H](CO)[C@@H](O[C@@H]4O[C@@H](C)[C@H](O)[C@@H](O)[C@H]4O)[C@H](O)[C@H]3O[C@@H]3O[C@@H](C)[C@H](O)[C@@H](O)[C@H]3O)nn2)[C@@H](C)C(=O)C(C)(C)[C@@H](O)CC(=O)O1`, the result in [3], in [4], in [5] and in series [6] was Active.

Source of the values: ChEMBL document CHEMBL5625208, “Tumor selective self-assembled nanomicelles of carbohydrate-epothilone B conjugate for targeted chemotherapy” (Eur J Med Chem, 2023).
